# In ChEMBL document CHEMBL5257025, “Artemisinin-Derived Dimers: Potent Antimalarial and Anticancer Agents” (J Med Chem, 2016):
# What was measured:
# [1] = Cytotoxicity against rat MTLn3 cells assessed as cell growth inhibition; type: toxicity, cell-based
# Plasmodium falciparum [2] = assay: Antimalarial activity against Plasmodium falciparum NF54 assessed as inhibition of cell growth incubated for 72 hrs by SYBR Green I staining based fluorescence analysis; type: functional, organism-based; conditions: NF54, 72 h
# TRAMP-C1A = assay: Cytotoxicity against mouse TRAMP-C1A cells assessed as inhibition of cell growth measured after 72 hrs by MTT assay; type: functional, cell-based
# C2G cell line = assay: Cytotoxicity against mouse C2G cells assessed as inhibition of cell growth measured after 72 hrs by MTT assay; type: functional, cell-based
# C2D cell line = assay: Cytotoxicity against mouse C2D cell line assessed as inhibition of cell growth measured after 72 hrs by MTT assay; type: functional, cell-based
# TRAMP-C2H = assay: Cytotoxicity against mouse TRAMP-C2H cells assessed as inhibition of cell growth measured after 72 hs by MTT assay; type: functional, cell-based
# CAKI-1 = assay: Antiproliferative activity against human CAKI-1 cells assessed as reduction in cell viability after 48 hrs by SRB assay; type: functional, cell-based; conditions: CAKI-1, 48 h
# OVCAR-3 = assay: Antiproliferative activity against human OVCAR-3 cells assessed as reduction in cell viability; type: functional, cell-based
# SK-OV-3 = assay: Antiproliferative activity against human SK-OV-3 cells assessed as reduction in cell viability incubated for 48 hrs by MTT assay; type: functional, cell-based; conditions: SK-OV-3, 48 h
# MCF7 [3] = assay: Antiproliferative activity against human MCF7 cells assessed as reduction in cell viability measured after 48 hrs by SRB assay; type: functional, cell-based; conditions: MCF7, 48 h
# A498 = assay: Antiproliferative activity against human A498 cells assessed as reduction in cell viability; type: functional, cell-based
# DU-145 = assay: Antiproliferative activity against human DU-145 cells assessed as reduction in cell viability; type: functional, cell-based
# PC-3 = assay: Antiproliferative activity against human PC-3 cells assessed as cell growth inhibition; type: functional, cell-based
# M14 = assay: Antiproliferative activity against human M14 cells assessed as growth inhibition incubated for 72 hrs by luminescence assay; type: functional, cell-based; conditions: M14, 72 h
# LOX IMVI = assay: Antiproliferative activity against human LOX IMVI cells assessed as cell growth inhibition; type: functional, cell-based
# K562 = assay: Antiproliferative activity against human K562 cells assessed as reduction in cell viability by MTT assay; type: functional, cell-based
# T47D = assay: Antiproliferative activity against human T47D cells assessed as inhibition of cell growth; type: functional, cell-based
# HL-60 = assay: Antiproliferative activity against human HL-60 cells assessed as reduction in cell viability incubated for 48 hrs by MTT assay; type: functional, cell-based; conditions: HL-60, 48 h
# BeWo = assay: Antiproliferative activity against human BeWo cells assessed as reduction in cell viability after 72 hrs by MTT assay; type: functional, cell-based
# HT-29 = assay: cells; conditions: Homo sapiens, HT-29, 72 h
# [4] = Antiproliferative activity against human YD-10B cells assessed as cell growth inhibition measured after 72 hrs by MTT assay; type: functional, cell-based
# P388 = assay: Antiproliferative activity against mouse P388 cells assessed as cell growth inhibition incubated for 72 hrs by MTT assay; type: functional, cell-based; conditions: P388, 72 h
# Ehrlich = assay: Cytotoxicity against mouse Ehrlich cells assessed as growth inhibition at 100 ug/ml; type: functional, cell-based
# TK-10 = assay: Growth inhibition of human TK-10 cells assessed as cell growth inhibition measured after 48 hrs by MTT assay; type: functional
# Plasmodium falciparum [5] = assay: Antimalarial activity against Plasmodium falciparum 3D7 assessed as inhibition of malarial growth; type: functional, organism-based
# MCF7 [6] = assay: Growth inhibition of human MCF7 cells assessed as cell growth inhibition incubated for 48 hrs by MTT assay; type: functional
# UACC-62 = assay: Growth inhibition of human UACC-62 cells assessed as cell growth inhibition measured after 48 hrs by MTT assay; type: functional
# Plasmodium berghei = assay: In vivo antimalarial activity against Plasmodium berghei infected mouse model assessed as survival time at 8 mg/kg, po in presence of Mefloquine hydrochloride
compound,measurement,setting,value
C[C@@H]1CC[C@H]2[C@@H](C)C(CC(CC3O[C@@H]4O[C@]5(C)CC[C@@H]6[C@@H](C)CC[C@H]([C@@H]3C)[C@]46OO5)C(=O)N/N=C/c3ccccc3O)O[C@H]3O[C@@]4(C)CC[C@@H]1[C@]32OO4 (stereo not given in full),IC50,[1],52 nM
C[C@H]1[C@@H](CC(F)(F)c2ccc(C(F)(F)C[C@H]3O[C@H]4O[C@@]5(C)CC[C@H]6[C@H](C)CC[C@@H]([C@H]3C)[C@@]46OO5)cc2)O[C@H]2O[C@@]3(C)CC[C@H]4[C@H](C)CC[C@@H]1[C@@]24OO3,IC50,Plasmodium falciparum [2],28 nM
Nc1ccn([C@@H]2O[C@H](CO)[C@@H](O)C2(F)F)c(=O)n1 [GEMCITABINE],IC50,TRAMP-C1A,3.7 nM
same,IC50,C2G cell line,3.7 nM
same,IC50,C2D cell line,3.7 nM
same,IC50,TRAMP-C2H,3.7 nM
C[C@@H]1CC[C@H]2[C@@H](C)C(OCC(COC3O[C@H]4O[C@@]5(C)CC[C@H]6[C@H](C)CC[C@@H]([C@H]3C)[C@@]46OO5)=NO)O[C@H]3O[C@@]4(C)CC[C@@H]1[C@]32OO4 (stereo not given in full),IC50,CAKI-1,13000 nM
same,IC50,OVCAR-3,200 nM
same,IC50,SK-OV-3,15000 nM
same,IC50,MCF7 [3],60 nM
same,IC50,A498,6500 nM
same,IC50,DU-145,15000 nM
same,IC50,PC-3,20 nM
same,IC50,M14,15000 nM
same,IC50,LOX IMVI,55 nM
same,IC50,K562,150 nM
same,IC50,T47D,30 nM
same,IC50,HL-60,40 nM
C[C@@H]1CC[C@H]2[C@@H](C)C(CCSCCC3O[C@@H]4O[C@]5(C)CC[C@@H]6[C@@H](C)CC[C@H]([C@@H]3C)[C@]46OO5)O[C@H]3O[C@@]4(C)CC[C@@H]1[C@]32OO4 (stereo not given in full),IC50,BeWo,22800 nM
same,IC50,HT-29,390 nM
same,IC50,MCF7 [3],30 nM
same,IC50,[4],9300 nM
same,IC50,P388,640 nM
C[C@H]1[C@H](O[C@H]2O[C@H]3O[C@@]4(C)CC[C@H]5[C@H](C)CC[C@@H]([C@H]2C)[C@@]35OO4)O[C@H]2O[C@@]3(C)CC[C@H]4[C@H](C)CC[C@@H]1[C@@]24OO3,IC50,Ehrlich,3600 nM
C[C@H]1[C@H](CC(F)(F)c2ccc(C(F)(F)C[C@H]3O[C@H]4O[C@@]5(C)CC[C@H]6[C@H](C)CC[C@@H]([C@H]3C)[C@@]46OO5)cc2)O[C@H]2O[C@@]3(C)CC[C@H]4[C@H](C)CC[C@@H]1[C@@]24OO3,IC50,Plasmodium falciparum [2],15 nM
C[C@@H]1CC[C@H]2[C@@H](C)C(OCCC(CCCNc3ccnc4ccc(Cl)cc34)CCOC3O[C@@H]4O[C@]5(C)CC[C@@H]6[C@@H](C)CC[C@H]([C@@H]3C)[C@]46OO5)O[C@H]3O[C@@]4(C)CC[C@@H]1[C@]32OO4 (stereo not given in full),GI50,TK-10,80 nM
same,IC50,Plasmodium falciparum [5],8.7 nM
same,GI50,MCF7 [6],30 nM
same,GI50,UACC-62,50 nM
C[C@@H]1CC[C@H]2[C@@H](C)C(CC(CC3O[C@@H]4O[C@]5(C)CC[C@@H]6[C@@H](C)CC[C@H]([C@@H]3C)[C@]46OO5)C[Si](C)(C)C)O[C@H]3O[C@@]4(C)CC[C@@H]1[C@]32OO4 (stereo not given in full),survival time,Plasmodium berghei,> 57 days
